Test results as given in the supplement of paper PMC10307832.

Compound: CC1=CC(=CC=C1)NC2=NC(=CS2)C3=CC=NC=C3 + CC1(C)CCC(c2ccc(Cl)cc2)=C(CN2CCN(c3ccc(C(=O)NS(=O)(=O)c4ccc(N[C@H](CCN5CCOCC5)CSc5ccccc5)c(S(=O)(=O)C(F)(F)F)c4)cc3)CC2)C1 [Navitoclax] (partner 0.5 µM)
Assay: relative viability (nuclei count vs DMSO), 5 days (fraction); higher = more cells survive
Details: first compound 0.08 µM
Procedure, shortened: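 Values are medians from duplicate plates. Each reflects relative viability, defined as the nuclei count of treated wells over that of vehicle wells. Lung cancer cell lines in 1536-well plates were pin-tool dosed one day after seeding with one drug alone or with a fixed anchor-drug dose plus five library-drug doses (not always all listed) in √10 steps, then fixed, stained and imaged at 4× after 5 days.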

Cell Line	relative viability
H3255	0.573
COR-L23	0.982
COR-L 105	0.573
LOU-NH91	0.611
ChaGo-K-1	0.9
NCI-H3122	1.02
HOP-62	0.865
LXF-289	0.944
BEN	0.0747
HARA	1.11
HCC-78	0.67
NCI-H441	0.327
NCI-H2023	0.958
A-427	0.955
NCI-H460	1.13
NCI-H1755	0.923
NCI-H520	1.04
NCI-H2405	0.732
SW 1573	0.916
NCI-H1395	0.984
201T	1.2
NCI-H1975	1.16
HCC-827	0.989
NCI-H2347	0.613
NCI-H1355	0.783
CAL-12T	1.19

Same assay, conditions: first compound 0.253 µM

Cell Line	relative viability
H3255	0.304
COR-L23	0.804
COR-L 105	0.779
LOU-NH91	0.619
ChaGo-K-1	0.806
NCI-H3122	1.04
HOP-62	1.01
LXF-289	0.921
BEN	0.0619
HARA	1.16
HCC-78	0.883
NCI-H441	0.42
NCI-H2023	0.961
A-427	0.962
NCI-H460	1.08
NCI-H1755	0.937
NCI-H520	1.09
NCI-H2405	0.802
SW 1573	0.965
NCI-H1395	1.1
201T	1.22
NCI-H1975	1.13
HCC-827	0.937
NCI-H2347	0.751
NCI-H1355	0.69
CAL-12T	1.06

Same assay, conditions: first compound 0.8 µM

Cell Line	relative viability
H3255	0.561
COR-L23	0.722
COR-L 105	0.634
LOU-NH91	0.625
ChaGo-K-1	1.06
NCI-H3122	1.07
HOP-62	1.13
LXF-289	0.939
BEN	0.0712
HARA	1.12
HCC-78	0.841
NCI-H441	0.673
LCLC-97TM1	0.641
NCI-H2023	0.945
A-427	0.899
NCI-H460	1.08
NCI-H1755	0.846
NCI-H520	1.15
NCI-H2405	0.655
SW 1573	0.924
NCI-H1395	1.04
201T	1.21
NCI-H1975	0.879
HCC-827	0.956
NCI-H2347	0.599
NCI-H1355	0.591
CAL-12T	1.16

Same assay, conditions: first compound 2.53 µM

Cell Line	relative viability
H3255	0.533
COR-L23	0.965
COR-L 105	0.809
LOU-NH91	0.774
ChaGo-K-1	0.411
NCI-H3122	1.08
HOP-62	1.11
LXF-289	0.908
BEN	0.0922
HARA	1.12
HCC-78	0.746
NCI-H441	0.64
LCLC-97TM1	0.385
NCI-H2023	0.916
NCI-H460	1.13
NCI-H1755	0.824
NCI-H520	1.12
NCI-H2405	0.883
SW 1573	1.1
NCI-H1395	0.971
201T	1.26
NCI-H1975	0.895
HCC-827	1.02
NCI-H2347	0.83
NCI-H1355	0.555
CAL-12T	1.05

Same assay, conditions: first compound 8 µM

Cell Line	relative viability
H3255	0.496
COR-L23	0.973
COR-L 105	0.456
LOU-NH91	0.434
ChaGo-K-1	0.849
NCI-H3122	1.04
HOP-62	1.01
LXF-289	0.822
BEN	0.084
HARA	1.08
HCC-78	0.788
NCI-H441	0.777
LCLC-97TM1	0.418
NCI-H2023	0.715
A-427	0.875
NCI-H460	1
NCI-H1755	0.679
NCI-H520	1.15
NCI-H2405	0.673
SW 1573	0.841
NCI-H1395	0.993
201T	0.993
NCI-H1975	0.726
HCC-827	0.935
NCI-H2347	0.632
NCI-H1355	0.577
